# Test results: patent EP0193189A1, “Novel compound, its production and insecticidal and acaricidal composition containing it as an active ingredient” (SUMITOMO CHEMICAL COMPANY, LIMITED, priority 1985, dated 1986)
# Test system: resistant strain of green rice leafhopper (Nephotetix cincticeps)
# Assay: Test Example 3: rice seedling dip test, resistant green rice leafhopper
# Format: in vivo
# Conditions: Nephotettix cincticeps, 24 h, rice seedlings dipped 1 minute; adults of resistant strain; after one day; read-out: LC50 value (ppm)
# Experimental: The emulsifiable concentrates of the following present compounds and control compounds obtained according to Formulation example 2 were each diluted with water to a prescribed concentration, and rice seedlings (about 12 cm in length) were dipped for 1 minute in the resulting aqueous dilute solutions. After air-drying, the seedlings were placed in test tube, and 10 adults of a resistant strain of green rice leafhopper (Nephotetix cincticeps) were liberated in the tube. After one day, the dead and alive of the adults were examined to obtain LC50 (50% lethal concentration)(two replications).
row,SMILES,LC50
1,C#CC(C)(CCCc1ccc(F)c(Oc2ccccc2)c1)c1ccc(OCC)cc1 (centres unmarked) [(4)],10 µg/mL
2,C#CC(C)(CCCc1ccc(F)c(Oc2ccc(Cl)cc2)c1)c1ccc(OCC)cc1 (centres unmarked) [(34)],18 µg/mL
3,C#CC(C)(CCCc1ccc(F)c(Oc2ccccc2)c1)c1ccc(OC(F)F)cc1 (centres unmarked) [(6)],36 µg/mL
4,"C#CC(C)(CCCc1cccc(Oc2ccccc2)c1)c1ccc(OC(F)F)cc1 (stereo not drawn) [(17), 3-(4-difluoromethoxyphenyl)-3-methyl-6-(3-phenoxyphenyl)-l-hexyne]",68 µg/mL

# Test system: brown rice planthoppers (Nila^parvata luqens)
# Assay: Test Example 7: spray on potted rice plants, brown rice planthopper, residual effect
# Format: in vivo
# Conditions: 20 h; 100 ppm spray, 20 ml/2 pots; residual effect; twenty hours after liberation; read-out: Mortality (%) liberated 4 days after application
# Experimental: The emulsifiable concentrates of the following compounds and control compounds obtained according to Formulation example 2 were each diluted with water one thousand times (corresponding to 100 ppm) and each of thus prepared solutions was sprayed at the rate of 20 ml/2 pots to the rice plant seedlings planted in Wagner pots having a surface area of one ten thousandth are. After air-drying, the treated plants were covered with the iron wire cages, and about 15 adults of brown rice planthoppers (Nila^parvata luqens) were liberated thereto. Further, about 15 adults thereof were also liberated thereto 4 days after the application to examine the residual effects. Twenty hours after each liberation, the dead and alive adults were examined to calculate the mortality.
row,SMILES,mortality at 100 ppm
1,C#CC(C)(CCCc1ccc(F)c(Oc2ccccc2)c1)c1ccc(OCC)cc1 (centres unmarked) [(4)],100%

# Same assay, conditions: 20 h; 100 ppm spray, 20 ml/2 pots; twenty hours after liberation; read-out: Mortality (%) liberated just after air-drying
row,SMILES,mortality at 100 ppm
1,C#CC(C)(CCCc1ccc(F)c(Oc2ccccc2)c1)c1ccc(OCC)cc1 (centres unmarked) [(4)],100%

# Test system: houseflies (Musca domestica) of WHO strains
# Assay: Test Example 6: housefly filter paper and sucrose bait test
# Format: in vivo
# Conditions: 0.7 ml on filter paper with sucrose bait, adult females, after 48 hours, read-out: LC50 value (ppm)
# Experimental: On the bottom of a polyethylene cup of 5.5 cm- in diameter was placed a piece of filter paper of the same size as the bottom, and 0.7 ml of a test solution, prepared by diluting the emulsifiable concentrates of the following present compounds and control compounds prepared according to Formulation example 2 to a prescribed concentration with water, was added dropwise to the filter paper. Thirty milligrams of sucrose were uniformly placed on the filter paper as bait. Thereafter, 10 adult female houseflies (Musca domestica) of WHO strains were liberated in the cup, which was then covered with a lid. After 48 hours, the dead and alive were examined to obtain LC50 value (50% lethal concentration) (two replications).
row,SMILES,LC50
1,C#CC(C)(CCCc1ccc(F)c(Oc2ccccc2)c1)c1ccc(OCC)cc1 (centres unmarked) [(4)],18 µg/mL
2,C#CC(C)(CCCc1ccc(F)c(Oc2ccccc2)c1)c1ccc(OC(F)F)cc1 (centres unmarked) [(6)],15 µg/mL

# Test system: rice stem borer (Chilo suppressalis)
# Assay: Test Example 5: rice stem borer larvae on treated artificial feed
# Format: in vivo
# Conditions: 1 ml solution in artificial feed, larvae 10 days old, read-out: LC50 value (ppm)
# Source text: The emulsifiable concentrates of the following present compounds and control compounds obtained according to Formulation example 2 were each diluted with water to a prescribed concentration, and one ml each of thus prepared solutions was impregnated into the artificial feeds for rice stem borer (Chilo suppressalis) which had been previously prepared in polyethylene cups of 5.5 cm in diameter, respectively. Ten of the larvae of the 10 days old were liberated thereon. The dead and alive larvae were examined to obtain LC50 value (50% lethal concentration) (two replications).
row,SMILES,LC50
1,C#CC(C)(CCCc1ccc(F)c(Oc2ccccc2)c1)c1ccc(OCC)cc1 (centres unmarked) [(4)],1.9 µg/mL
2,C#CC(C)(CCCc1ccc(F)c(Oc2ccc(Cl)cc2)c1)c1ccc(OCC)cc1 (centres unmarked) [(34)],4.2 µg/mL
3,C#CC(C)(CCCc1ccc(F)c(Oc2ccccc2)c1)c1ccc(OC(F)F)cc1 (centres unmarked) [(6)],1.9 µg/mL
4,"C#CC(C)(CCCc1cccc(Oc2ccccc2)c1)c1ccc(OC(F)F)cc1 (stereo not drawn) [(17), 3-(4-difluoromethoxyphenyl)-3-methyl-6-(3-phenoxyphenyl)-l-hexyne]",3.6 µg/mL

# Test system: brown rice planthopper (Nila^parvata luqens)
# Assay: Test Example 4: rice seedling dip test, brown rice planthopper
# Format: in vivo
# Conditions: 24 h; rice seedlings dipped 1 minute; adults; after one day; read-out: LC50 value (ppm)
# Experimental: The emulsifiable concentrates of the-following present compounds and control compounds obtained according to Formulation example 2 were each diluted with water to a prescribed concentration, and the rice seedlings (about 12 cm in length) were dipped for 1 minute in the resulting aqueous dilute solutions. After air-drying, the seedlings were placed in a test tube, and 10 adults of brown rice planthopper (Nila^parvata luqens) were liberated in the tube. After one day, the dead and alive of the adults were examined to obtain LC50 value (50% lethal concentration)(two replications).
row,SMILES,LC50
1,C#CC(C)(CCCc1ccc(F)c(Oc2ccccc2)c1)c1ccc(OCC)cc1 (centres unmarked) [(4)],24 µg/mL

# Test system: tobacco cutworms (Spodoptera litura)
# Assay: Test Example 2: tobacco cutworm larvae on treated artificial feed
# Format: in vivo
# Conditions: Spodoptera litura, 144 h; 150 ppm solution, 2 ml in 13 g artificial feed; 4th instar larvae; six days after; read-out: Mortality (%)
# Source text: The emulsifiable concentrates of the following present compounds obtained according to Formulation example 2 were each diluted with water to obtain respective 667 times dilution aqueous solutions (corresponding to 150 ppm) containing said compounds, respectively. Two ml of thus diluted solutions were impregnated into the artificial feeds (13 g) for tobacco cutworms (Spodoptera litura) and thus prepared feeds were placed in polyethylene cups of 11 cm in diameter, respectively. Ten of the 4th instar larvae were liberated thereon.
# Six days after, the dead and alive of the larvae were examined to calculate the mortality (two replications).
row,SMILES,mortality at 150 ppm
1,C#CC(C)(CCCc1ccc(F)c(Oc2ccccc2)c1)c1ccc(OCC)cc1 (centres unmarked) [(4)],100%
2,C#CC(C)(CCCc1ccc(F)c(Oc2ccc(Cl)cc2)c1)c1ccc(OCC)cc1 (centres unmarked) [(34)],100%
3,C#CC(C)(CCCc1ccc(F)c(Oc2ccccc2)c1)c1ccc(OC(F)F)cc1 (centres unmarked) [(6)],100%
4,"C#CC(C)(CCCc1cccc(Oc2ccccc2)c1)c1ccc(OC(F)F)cc1 (stereo not drawn) [(17), 3-(4-difluoromethoxyphenyl)-3-methyl-6-(3-phenoxyphenyl)-l-hexyne]",100%

# Test system: common mosquito (Culex pipiens pallens)
# Assay: Test Example 1: common mosquito larvae in diluted emulsifiable concentrate, mortality and emergence inhibition
# Format: in vivo
# Conditions: Culex pipiens, 24 h; 3.5 ppm; 20 last instar larvae; after one day; read-out: Mortality
# Experimental: The emulsifiable concentrates of the following present compounds obtained according to Formulation example 2 were each diluted with water so as to obtain respective aqueous solutions containing 3.5 ppm of said compounds, respectively. One hundred ml of thus diluted aqueous solutions were poured into respective polyethylene cups of 180 ml volume, and 20 of the last instar larvae of common mosquito (Culex pipiens pallens) were liberated thereto. After one day, the dead or alive of the larvae were examined.
# Thereafter, the feed was added to respective cups and the number of emerged pupae of the respective cups was counted when all the pupae of no treatment group had emerged to calculate the inhibitory ratios of the emergence.
# The mortality and the inhibitory ratio of the emergence are shown according to the following three criteria: • mortality: A; 90% or more, • B; less than 90% to 10%, • C; less than 10%. • inhibitory: A; 90% or more, ratio of • emergence B; less than 90% to 80% • C; less than 80%.
row,SMILES,mortality at 3.5 ppm
1,C#CC(C)(CCCc1ccc(F)c(Oc2ccccc2)c1)c1ccc(OCC)cc1 (centres unmarked) [(4)],> 90%
2,C#CC(C)(CCCc1ccc(F)c(Oc2ccc(Cl)cc2)c1)c1ccc(OCC)cc1 (centres unmarked) [(34)],> 90%
3,C#CC(C)(CCCc1ccc(F)c(Oc2ccccc2)c1)c1ccc(OC(F)F)cc1 (centres unmarked) [(6)],> 90%
4,"C#CC(C)(CCCc1cccc(Oc2ccccc2)c1)c1ccc(OC(F)F)cc1 (stereo not drawn) [(17), 3-(4-difluoromethoxyphenyl)-3-methyl-6-(3-phenoxyphenyl)-l-hexyne]",> 90%

# Same assay, conditions: Culex pipiens; 3.5 ppm; counted when all pupae of no treatment group had emerged; read-out: Inhibitory ratio of emergence
row,SMILES,pest or weed control at 3.5 ppm
1,C#CC(C)(CCCc1ccc(F)c(Oc2ccccc2)c1)c1ccc(OCC)cc1 (centres unmarked) [(4)],> 90%
2,C#CC(C)(CCCc1ccc(F)c(Oc2ccc(Cl)cc2)c1)c1ccc(OCC)cc1 (centres unmarked) [(34)],> 90%
3,C#CC(C)(CCCc1ccc(F)c(Oc2ccccc2)c1)c1ccc(OC(F)F)cc1 (centres unmarked) [(6)],> 90%
4,"C#CC(C)(CCCc1cccc(Oc2ccccc2)c1)c1ccc(OC(F)F)cc1 (stereo not drawn) [(17), 3-(4-difluoromethoxyphenyl)-3-methyl-6-(3-phenoxyphenyl)-l-hexyne]",> 90%

# Test system: not listed separately
# Assay: Test Example 9: fish toxicity test
# Format: in vivo, Cyprinida carpio
# Conditions: water; young carp; forty-eight hours; 25 ± 1°C; Probit method; read-out: LC50 value (ppm)
# Experimental: Twenty liters of each of the aqueous solutions containing the prescribed concentrations of the present compounds and comparative control one, and 10 young carp were liberated thereto. Forty-eight hours after, the dead and alive carp were examined to obtain LC50 value, (50% lethal concentration) according to Probit method. All the tests were carried out in thermostatic aquaria whose temperatures were kept at 25 ± 1°C.
# Tested fish: young Japanese carp (Cyprinida carpio) Average body length ± S.D.: 2.94 ± 0.19 cm. Average.body weight ± S.D.: 0.65 ± 0.13 g.
row,SMILES,LC50 at 48 h
1,C#CC(C)(CCCc1ccc(F)c(Oc2ccccc2)c1)c1ccc(OCC)cc1 (centres unmarked) [(4)],> 10 µg/mL
